Data reported in patent US20120207734A1 (priority 2011, published 2012).

Tested on: DU-145 cells
Format: cell-based, human

## C=C1[C@@H](C)[C@H]2[C@H](Cc3ccccc3)NC(=O)[C@]23[C@H](OC(C)=O)/C=C/[C@@](C)(O)C(=O)[C@@H](C)C/C=C/[C@H]3[C@@H]1O [Cytochalasin-D]
  Effect on cell migration: did not migrate
  Relative Wound Density at 24 Hours, Mean: 3.3 ± 0.2
  Relative Wound Density at 24 Hours, Percent Relative to Media: 4%
